{"source": "patent US8658592B2", "about": "“Biologically active peptides and their new uses” (priority 2005, dated 2014)", "key": {"[1]": {"tested_on": "human hepatitis B virus (HBV), 2.2.15 cell line", "test": "Test 1: inhibition of HBsAg and HBeAg in 2.2.15 cells (ELISA)", "assay_type": "cell-based", "settings": "400 μg/ml", "procedure": "2.2.15 cells at log phase were harvested and adjusted to 2×10^6/ml with MEM (containing 10% fetal bovine serum, […]). The suspension was inoculated on a 24-well culture plate with 1.5 ml per well, and incubated at 37° C., 5% CO2 for 48 hours for attachment. The peptides were added to the final concentration of 400 μg/ml with 3 parallel wells per sample. One set of blank control (3 wells) was also prepared, in which the peptide was replaced with culture medium. The plate was incubated at 37° C. for 4 days, the culture medium was then exchanged with freshly prepared medium (of the same composition as the original), and the plate was incubated for a further 4 days. By the end of incubation, the supernatants of the culture were collected, and the titers of HBsAg and HBeAg were determined by ELISA method according to the instruction of the detection kit manufacturer."}, "[2]": {"tested_on": "human hepatitis B virus (HBV), 2.2.15 cell line", "test": "Test 2: inhibition of HBV-DNA in 2.2.15 cells (fluorescence quantitative PCR)", "assay_type": "cell-based", "settings": "160 μg/ml", "procedure": "The preparation and incubation of cell suspension was repeated as in test 1 above, but at the peptide concentration of 160 μg/ml."}, "[3]": {"tested_on": "carrageenin induced foot swelling", "test": "carrageenin induced foot swelling in rats", "assay_type": "in vivo, Wistar rats", "procedure": "Wistar rats were divided randomly into DXM group (0.2 mg/kg/day), saline control group (1 ml/day), and three dosages of CMS-030 groups (2, 10, 20 μg/ml/day). All of the drugs were diluted to 0.5 ml with saline, and were administered intraperitoneally (i.p) daily. Two weeks after drug administration, 0.15 ml of 1% carrageenin saline solution was applied to the right foot by subcutaneous injection. 0.5 hr later, the circumference of right foot was measured precisely, and foot swelling was calculated by subtracting the pre-challenge circumference from the post-challenge value Inhibition index (%)=(foot swelling of saline control group−foot swelling of drug group)/foot swelling of saline control group×100%."}, "[4]": {"tested_on": "duck hepatitis B virus (DHBV)", "test": "Chongqing duck hepatitis B animal model: serum DHBV DNA and DHBsAg", "assay_type": "in vivo, Chongqing ducks", "procedure": "CMS-017 dissolved in saline was applied to Chongqing duck hepatitis B animal model by intramuscular injection for 28 days. The serum levels of DHBV DNA and DHBsAg (duck hepatitis B surface antigen) were observed by serum dot-blot hybridization and ELISA respectively and compared with blank control.\n0.1 ml DHBV DNA positive serum (5×10^7 copies/ml) was inoculated into the abdominal cavity of one-day old Chongqing ducks to set up the hepatitis animal model. 10 days after inoculation, blood samples were collected from the external jugular vein and success of infection was confirmed by dot-blot hybridization with DHBV DNA probe labeled with digoxi^[3].\n2) CMS-017 group (n=12): 200 μg/kg/day CMS-017 (dissolved in 1 ml normal saline) applied by intramuscular injection, once per day.\nThe treatment lasted for 4 weeks, and observation continued for another one week after termination of treatment. 1 ml blood samples were drawn from the external jugular vein on days 0, 7, 14, 21, 28, and 35 from the start of treatment. The sera were isolated^[4] and stored at −20° C. until analysis.\nDHBV DNA probe was fluorescent-labeled according to the labeling kit protocol from the manufacturer (Roche Co.). Duck sera were dot-blotted (2 dot per sample) onto nitrocellulose membrane and hybridized with fluorescent-labeled probe for DHBV DNA quantitation^[3]. DHBV DNA 40 μl+DHBsAg 100 μl was used as internal standard. CDP-Star fluorimetry reagent was used for amplification of the fluorescence. Vuego Scan (Brisa-620st) scanner was used for film scanning, and Discovery Series Quantity One software for quantitative analysis of the blots. The blot value was described as “volume” (volume=intensity×mm^2)\nDHBsAg level was determined by ELISA method^[5-8], and the O.D value was obtained by ELISA reader (Bio-TEK Co.) at 490 nm."}, "[5]": {"settings": "human hepatitis B virus, 2.2.15 cell line, 48 h"}, "[6]": {"settings": "0.5 hr after carrageenin, 0.2 mg/kg/d"}, "[7]": {"settings": "Week 5 (one week after termination of treatment)"}}, "note": "Marks after values point to notes of the source that are not given here. Ends that are not written are not given here. Peptide text beside a SMILES is read from it."}
{"compound": "C[C@H](N)C(=O)N[C@@H](C)C(=O)N[C@@H](Cc1ccccc1)C(=O)O", "note": "[CMS-023, Ala Ala Phe] (H-Ala-Ala-Phe-OH; N-terminus and C-terminus assumed)", "values": [{"measurement": "Inhibition ratio to HBeA", "setting": "[1]; [5]", "result": 53.7, "unit": "%*"}, {"measurement": "Inhibition ratio to HBsA:", "setting": "[1]; [5]", "result": 58.4, "unit": "%*"}, {"measurement": "% HBV-DNA inhibition", "setting": "[2]; human hepatitis B virus, 2.2.15 cell line", "result": 70.8, "unit": "%*"}]}
{"compound": "C[C@@H]1C[C@H]2[C@@H]3CCC4=CC(=O)C=C[C@]4(C)[C@@]3(F)[C@@H](O)C[C@]2(C)[C@@]1(O)C(=O)CO", "note": "[DXM, Dexamethasone]", "values": [{"measurement": "Inhibition Index 0.5 hr", "setting": "[3]; [6]", "result": "63.0** %"}, {"measurement": "Swelling 0.5 hr", "setting": "[3]; [6]", "result": "2.74 ± 0.10", "unit": "cm"}, {"measurement": "Pre-challenge circumference", "setting": "[3]; right foot, 0.2 mg/kg/d i.p., two weeks", "result": "2.49 ± 0.05", "unit": "cm"}]}
{"compound": "IVTNTT [CMS-017, Ile-Val-Thr-Asn-Thr-Thr]", "values": [{"measurement": "Inhibition ratio to HBeA", "setting": "[1]; 2.2.15 cells, 8 days", "result": 62.2, "unit": "%*"}, {"measurement": "Inhibition ratio to HBsA:", "setting": "[1]; 2.2.15 cells, 8 days", "result": 68.6, "unit": "%*"}, {"measurement": "Serum DHBV DNA titer", "setting": "[4]; Pre-treatment, 200 μg/kg/day i.m. group", "result": "2207.0 ± 237.5", "unit": "volume"}, {"measurement": "Serum DHBsAg O.D. value", "setting": "[4]; Pre-treatment, 200 μg/kg/day i.m. group, 490 nm", "result": "0.928 ± 0.402"}, {"measurement": "Serum DHBV DNA titer", "setting": "[4]; Week 1, 200 μg/kg/day i.m.", "result": "1991.8 ± 378.9", "unit": "volume"}, {"measurement": "Serum DHBsAg O.D. value", "setting": "[4]; Week 1, 200 μg/kg/day i.m.", "result": "0.761 ± 0.328"}, {"measurement": "Serum DHBV DNA titer", "setting": "[4]; Week 2, 200 μg/kg/day i.m.", "result": "1925.0 ± 549.9", "unit": "volume"}, {"measurement": "Serum DHBsAg O.D. value", "setting": "[4]; Week 2, 200 μg/kg/day i.m.", "result": "0.668 ± 0.310"}, {"measurement": "Serum DHBV DNA titer", "setting": "[4]; Week 3, 200 μg/kg/day i.m.", "result": "1743.9 ± 555.0", "unit": "volume"}, {"measurement": "Serum DHBsAg O.D. value", "setting": "[4]; Week 3, 200 μg/kg/day i.m.", "result": "0.551 ± 0.268"}, {"measurement": "Serum DHBV DNA titer", "setting": "[4]; Week 4, 200 μg/kg/day i.m.", "result": "1544.9 ± 389.7", "unit": "volume"}, {"measurement": "Serum DHBsAg O.D. value", "setting": "[4]; Week 4, 200 μg/kg/day i.m.", "result": "0.479 ± 0.279"}, {"measurement": "Serum DHBV DNA titer", "setting": "[4]; [7]", "result": "1742.7 ± 437.0", "unit": "volume"}, {"measurement": "Serum DHBsAg O.D. value", "setting": "[4]; [7]", "result": "0.488 ± 0.182"}, {"measurement": "rebound of serum DHBV DNA and DHBsAg", "setting": "[4]; upon discontinuation of treatment for 7 days", "result": "rebound was not observed"}, {"measurement": "% HBV-DNA inhibition", "setting": "[2]; 2.2.15 cells", "result": 90.8, "unit": "%*"}]}
